Results: PMC4237307 (Chembiochem : a European journal of chemical biology, 2014)
Blank lines part the entries; values can stand above or below the compound they belong to.

Tests used:
[1] = test system: P. berghei-luciferase sporozoites; experiment: Mouse liver stage malaria model, parasite load in livers by in vivo imaging; set-up: species or system C57BL/6 mice
[2] = mouse, in vivo
PfPK5 = PfPK5 (Plasmodium falciparum, UniProt P61075); format: binding; conditions: for Percent binding to PfPK5: 10 μM compound
PfPK5, sequence (P61075 whole entry): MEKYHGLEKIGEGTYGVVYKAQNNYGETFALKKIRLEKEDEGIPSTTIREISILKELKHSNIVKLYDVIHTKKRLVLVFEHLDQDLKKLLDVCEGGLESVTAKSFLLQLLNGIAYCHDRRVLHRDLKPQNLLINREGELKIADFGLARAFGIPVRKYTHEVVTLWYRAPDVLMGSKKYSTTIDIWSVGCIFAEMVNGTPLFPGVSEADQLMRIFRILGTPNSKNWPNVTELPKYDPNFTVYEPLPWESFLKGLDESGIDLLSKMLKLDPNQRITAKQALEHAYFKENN

liver stage P. berghei = experiment: Time course of liver stage parasite inhibition; conditions: inhibitor added to infected liver cells
[3] = test system: liver stage P. berghei ANKA; format: cell-based
[4] = test system: blood stage P. falciparum Dd2; experiment: Blood stage malaria dose-response assay; format: cell-based; conditions: read-out: Blood stage malaria IC50
mTOR = conditions: read-out: IC50 mTOR; cited from earlier work
[5] = test system: liver and blood stage P. berghei; conditions: cited from earlier work
P. berghei = P. berghei parasitemia in mice after prophylactic treatment; format: in vivo; conditions: single oral dose 100 mg/kg b.w. before infection

SMILES: CC(C)(C)c1cnc(CSc2cnc(NC(=O)C3CCNCC3)s2)o1 [SNS-032]
- Parasite load in mouse livers vs vehicle ([1]; single oral dose 75 mg/kg b.w. before infection): reduce parasite load in mouse livers
- Toxicity to mice [2]: relatively limited toxicity to mice

- Percent binding to PfPK5 (PfPK5): > 50%
- Kd (PfPK5; read-out: Kd for PfPK5, competition binding, absence of ATP): < 10000 nM
SMILES: Cc1ccc([N+](=O)[O-])cc1S(=O)(=O)N(C)/N=C/c1cnc2ccc(Br)cn12 [PIK-75]

SMILES: CN1CC[C@H](c2c(O)cc(O)c3c(=O)cc(-c4ccccc4Cl)oc23)[C@H](O)C1 [Flavopiridol]
- Percent binding to PfPK5 (PfPK5): > 50%

SMILES: CCC(=O)N1CCN(c2ccc(-n3c(=O)ccc4cnc5ccc(-c6cnc7ccccc7c6)cc5c43)cc2C(F)(F)F)CC1 [Torin1]
- Parasite inhibition with 12-hour treatment (liver stage P. berghei): inhibit parasites with only a 12-hour treatment

SMILES: Nc1ccc(-c2ccc3ncc4ccc(=O)n(-c5cccc(C(F)(F)F)c5)c4c3c2)cn1 [Torin2]
- IC50 ([3]; read-out: Liver stage malaria IC50, liver stage): 40 nM
- IC50 [4]: 1 nM
- Activity in mouse animal model [5]: exhibits activity against liver and blood stage P. berghei

SMILES: Cc1nc(N)sc1-c1ccnc(Nc2ccc(N3CCOCC3)cc2)n1 [CYC-116]
- Stage selectivity (blood stage IC50 vs liver stage IC50) [3]: inhibited liver stage P. berghei significantly more potently than blood stage P. falciparum
- Parasite load in mouse livers vs vehicle ([1]; single oral dose 100 mg/kg b.w. before infection): significantly reduced parasite load in mouse livers
- P. berghei parasitemia vs vehicle (P. berghei): reduction in P. berghei parasitemia

SMILES: FC(F)c1nc2ccccc2n1-c1nc(N2CCOCC2)nc(N2CCOCC2)n1 [ZSTK474]
- Parasite inhibition with 12-hour treatment (liver stage P. berghei): inhibit parasites with only a 12-hour treatment

SMILES: CNC(=O)c1cc(Oc2ccc(NC(=O)Nc3ccc(Cl)c(C(F)(F)F)c3)cc2)ccn1 [Nexavar]
- Inhibition of parasite load in liver cells ([3]; low micromolar concentration): completely inhibited parasite load in liver cells
